Assay results taken from patent publication US10597369B2, “Monosulfonic phenyltetrazole compounds with applications” (HANGZHOU JENNIFER BIOTECH CO., LTD., priority 2015, dated 2020).
Counter-ions that a name gives are not always drawn.

How the values were obtained:
[1] = Reagent stability assays (stored tetrazolium detection reagent tested with NADH, response at 450 nm); assay type: physicochemical; details: for lost activity: detection reagent after storage at 4° C. for a month, tested using 100 μM NADH in 50 mM Tris-Cl (pH 8); for changes in activity on storage: storage at −20° C. for up to a year, tested monthly in NADH titration
Description: The tetrazolium detection reagent (WST-8 or EZMTT) was stored at 4 and −20° C., respectively. Once a month, the stored tetrazolium detection reagent was tested using 100 μM NADH in 50 mM Tris-Cl (pH 8) and the response was measured at 450 nm.
For the stability test, the WST-8, EZMTT detection reagents were stored at 4° C. and −20° C. up to a year. Both reagents were tested in NADH titration every month for their activities.

SMILES	lost activity [1] [%]	changes in activity on storage [1]	melting point [°C]
COc1cc([N+](=O)[O-])ccc1-[n+]1nc(-c2ccc(S(=O)(=O)[O-])cc2S(=O)(=O)[O-])nn1-c1ccc([N+](=O)[O-])cc1.[Na+] [WST-8, 2-(3-(2-methoxy-4-nitrophenyl)-2-(4-nitrophenyl)-2H-tetrazolium)benzene disulfonate sodium salt, reference compound]	60	essentially no changes in activity	
COc1cc([N+](=O)[O-])ccc1-[n+]1nc(-c2ccccc2S(=O)(=O)O)nn1-c1ccc([N+](=O)[O-])cc1 (as salt: sodium) [EZMTT, 2-(4-nitrophenyl)-3-(2-methoxy-4-nitrophenyl)-5 (2-sulfonic phenyl)-2H-tetrazolium monosodium salt]			105
COc1cc([N+](=O)[O-])ccc1-[n+]1nc(-c2ccccc2S(=O)(=O)O)nn1-c1ccc([N+](=O)[O-])cc1 [EZMTT, 2-(4-nitrophenyl)-3-(2-methoxy-4-nitrophenyl)-5 (2-sulfonic phenyl)-2H-tetrazolium monosodium salt]	25	essentially no changes in activity	
